From US20250115654A1, “PHARMACEUTICAL COMPOSITION OF GLP-1 RECEPTOR AND GIP RECEPTOR DUAL AGONIST, AND USE THEREOF” (FUJIAN SHENGDI PHARMACEUTICAL CO., LTD., priority 2021, published 2025)
Numbered stars: 1 amine (or outer) side, 2 acyl side, 3 side chain; on linkers, the order of the positions; unused ones are H or OH. Square brackets hold non-standard residues; d marks the D form. Side chains are listed from the residue outwards. Peptide text beside a SMILES is read from it. * marks the point of attachment. C20 diacid = O=C(O)CCCCCCCCCCCCCCCCCCC(=O)*; γGlu = O=C(O)[C@H](CCC(=O)[*:2])N[*:1]; AEEA = NCCOCCOCC(=O)O; Aib = CC(C)(N)C(=O)O

Assays:
normal mice = assay: Blood glucose in normal mice after a single subcutaneous administration and intraperitoneal glucose; type: in vivo, C57BL/6 mice; conditions: 10 nmol/kg sc; for Blood glucose (mmol/L, mean ± SD): glucose ip 18 h later
Description: 18 h later, a glucose solution at a concentration of 0.2 g/mL was intraperitoneally injected. Blood glucose values were measured by collecting blood from the tail of mice at time points of 0 min, 15 min, 30 min, 60 min, and 120 min according to the experimental design. The specific procedures were as follows: the mouse was physically immobilized with the tail exposed, a little part was cut off at the tail end, then the tail was squeezed to bleed, and blood glucose was determined using a Roche active glucometer after the 1st drop of blood was discarded. The area under the blood glucose curve (AUC) was calculated from the results of all time points.

[1] = Pharmacokinetics in Balb/c mice after a single subcutaneous injection; type: in vivo; conditions: male, mouse, sc, mice plasma, 30 nmol/kg
Description: (§1) Male Balb/c mice weighing 18-30 g and aged 7-9 weeks were purchased from Shanghai Jiesijie Laboratory Animal Co., Ltd. After compound 7 #was prepared in a buffer containing 20 mM citric acid (pH=7.0), compound 7 #was subcutaneously injected into mice at a dose of 30 nmol/kg body weight via left side of abdomen, and 0.2 mL of blood was separately collected at time points of 0 h, 0.083 h, 0.25 h, 0.5 h, 1 h, 2 h, 4 h, 6 h, 8 h, 24 h, and 32 h. The collected blood of mice was centrifuged at 6000 rpm for 6 min at 4° C. to separate the plasma. The content of compound 7 #in plasma of mice was assayed by the experimental procedures of Example 5.2.

[2] = Stability of compounds in human plasma (LC-MS); type: in vitro ADME
Description: 5 μL of each of samples at concentrations of 20 ng/mL, 50 ng/mL, 100 ng/mL, 200 ng/mL, 500 ng/mL, 1000 ng/mL, 2000 ng/mL, 5000 ng/mL, and 10000 ng/mL was added to 45 L of human plasma. The content of the compounds in the samples was determined by the LC-MS method and a standard curve was formed. 5 μL of a 1 mg/mL polypeptide solution was added to 45 μL of human plasma. […] With the content at 0 min as the standard (100%), the relative content of the retained compounds in the samples at other time points was calculated.

[3] = Pharmacokinetics in Balb/c mice after a single intravenous injection; type: in vivo; conditions: male, mouse, mice plasma, 30 nmol/kg
Description: as §1, with “intravenous” for “subcutaneously”, “tail vein,” for “left side of abdomen,”, “3.3.” for “5.2.”

human GIPR = molecular target: T1, human GIPR (Homo sapiens, UniProt P48546); assay: Agonist activity against GIPR, cAMP HTRF in CHO-K1 cells transiently transfected with hGIP receptor; type: cell-based
T1 construct: expressed in transfected cells; host or cells: wild-type CHO-K1, transient transfection with hGIP receptor plasmid (Fugene HD)
T1 sequence (P48546 22-466): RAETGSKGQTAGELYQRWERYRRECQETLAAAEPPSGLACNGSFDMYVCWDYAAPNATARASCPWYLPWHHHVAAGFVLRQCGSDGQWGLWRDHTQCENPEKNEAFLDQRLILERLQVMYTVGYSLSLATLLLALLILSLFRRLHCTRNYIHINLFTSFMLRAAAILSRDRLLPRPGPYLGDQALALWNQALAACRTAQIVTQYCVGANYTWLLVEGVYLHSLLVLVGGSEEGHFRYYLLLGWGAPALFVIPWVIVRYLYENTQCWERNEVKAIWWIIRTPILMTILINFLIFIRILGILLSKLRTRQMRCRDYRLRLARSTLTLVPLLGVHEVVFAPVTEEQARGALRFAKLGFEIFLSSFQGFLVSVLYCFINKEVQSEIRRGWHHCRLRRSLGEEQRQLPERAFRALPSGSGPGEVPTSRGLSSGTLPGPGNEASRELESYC
Description: Wild-type CHO-K1 cells were collected, and the cell suspension was adjusted to an appropriate density, seeded in a 6-well plate at 2 mL/well, and placed in an incubator at 37° C. with 5% CO2 for adherence culture overnight.

[4] = test system: diet-induced-obesity mice; assay: Body weight of diet-induced-obesity mice, subcutaneous administration once every 3 days; type: in vivo, C57BL/6 mice; conditions: for Body weight change (%, mean ± SD): 10 nmol/kg
[5] = molecular target: T2, human glucose-dependent insulinotropic polypeptide receptor (GIPR) (human) (UniProt P48546)
T2 sequence: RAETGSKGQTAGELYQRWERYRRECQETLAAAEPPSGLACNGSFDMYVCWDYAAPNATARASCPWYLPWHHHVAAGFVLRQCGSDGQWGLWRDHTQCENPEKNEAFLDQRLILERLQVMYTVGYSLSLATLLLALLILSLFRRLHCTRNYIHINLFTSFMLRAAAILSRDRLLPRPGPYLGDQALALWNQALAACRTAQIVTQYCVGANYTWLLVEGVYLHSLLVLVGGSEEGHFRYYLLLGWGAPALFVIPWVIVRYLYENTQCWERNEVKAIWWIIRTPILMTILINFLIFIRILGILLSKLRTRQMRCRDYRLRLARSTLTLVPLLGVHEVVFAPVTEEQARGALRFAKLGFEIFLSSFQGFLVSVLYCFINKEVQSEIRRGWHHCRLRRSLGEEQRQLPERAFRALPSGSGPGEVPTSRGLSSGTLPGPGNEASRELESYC

[6] = molecular target: T3, human glucose-dependent insulinotropic polypeptide receptor (GIPR) (human, UniProt P48546); assay: cell-based or functional assay
T3 sequence: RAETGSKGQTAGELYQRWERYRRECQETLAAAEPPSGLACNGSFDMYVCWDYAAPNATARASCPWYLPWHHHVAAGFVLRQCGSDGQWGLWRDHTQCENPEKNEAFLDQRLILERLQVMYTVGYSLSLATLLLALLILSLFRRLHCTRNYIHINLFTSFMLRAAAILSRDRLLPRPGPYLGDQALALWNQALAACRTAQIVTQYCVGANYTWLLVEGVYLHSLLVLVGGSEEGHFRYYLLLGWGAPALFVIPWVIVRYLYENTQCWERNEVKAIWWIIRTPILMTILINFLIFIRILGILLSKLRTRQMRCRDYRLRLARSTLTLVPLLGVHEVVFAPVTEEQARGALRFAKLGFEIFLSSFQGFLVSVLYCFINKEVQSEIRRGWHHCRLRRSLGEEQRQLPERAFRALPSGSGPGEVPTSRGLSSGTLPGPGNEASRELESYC

[7] = molecular target: human glucagon-like peptide-1 receptor (GLP-1R) (human, UniProt P43220); assay: cell-based or functional assay

Molecule: CC[C@H](C)[C@H](NC(=O)[C@H](CCCCN)NC(=O)[C@H](CC(=O)O)NC(=O)[C@H](CCCCNC(=O)COCCOCCNC(=O)COCCOCCNC(=O)CC[C@H](NC(=O)CCCCCCCCCCCCCCCCCCC(=O)O)C(=O)O)NC(=O)[C@H](Cc1ccc(O)cc1)NC(=O)[C@@H](NC(=O)[C@H](CO)NC(=O)[C@H](Cc1ccc(O)cc1)NC(=O)[C@H](CC(=O)O)NC(=O)[C@H](CO)NC(=O)[C@@H](NC(=O)[C@H](Cc1ccccc1)NC(=O)[C@@H](NC(=O)CNC(=O)[C@H](CCC(=O)O)NC(=O)C(C)(C)NC(=O)[C@@H](N)Cc1ccc(O)cc1)[C@@H](C)O)[C@@H](C)O)[C@@H](C)CC)C(=O)N[C@@H](C)C(=O)N[C@@H](C)C(=O)N[C@@H](CCC(N)=O)C(=O)N[C@@H](CCC(=O)O)C(=O)N[C@@H](Cc1ccccc1)C(=O)N[C@H](C(=O)N[C@@H](CC(N)=O)C(=O)N[C@@H](Cc1c[nH]c2ccccc12)C(=O)N[C@@H](CC(C)C)C(=O)N[C@@H](CC(C)C)C(=O)N[C@@H](C)C(=O)NCC(=O)NCC(=O)N1CCC[C@H]1C(=O)N[C@@H](CO)C(=O)N[C@@H](CO)C(=O)NCC(=O)N[C@@H](C)C(=O)N1CCC[C@H]1C(=O)N1CCC[C@H]1C(=O)N1CCC[C@H]1C(=O)N[C@@H](CO)C(N)=O)C(C)C [Compound 7#] (H-Y[Aib]EGTFTSDYSIYK([AEEA-AEEA-γGlu-C20 diacid])DKIAAQEFVNWLLAGGPSSGAPPPS-NH2)
- reduction of area under the blood glucose curve compared with placebo (normal mice): more than 60%
- AUC (area under the blood glucose curve) (normal mice; 0-120 min): 10.7 ± 1.8 mmol·h/L
- Blood glucose (mmol/L, mean ± SD) (normal mice; 0 min): 4.4 ± 0.8 mmol/L
- Blood glucose (mmol/L, mean ± SD) (normal mice; 15 min): 6.7 ± 0.8 mmol/L
- Blood glucose (mmol/L, mean ± SD) (normal mice; 30 min): 6.2 ± 1.3 mmol/L
- Blood glucose (mmol/L, mean ± SD) (normal mice; 60 min): 5.7 ± 1.2 mmol/L
- Blood glucose (mmol/L, mean ± SD) (normal mice; 120 min): 3.8 ± 1.1 mmol/L
- AUC(0-inf) [1]: 14500 ng·h/mL
- half-life [1]: 10.1 h
- Relative content of compounds retained in plasma (%) ([2]; 0 min (standard 100%)): 100.00%
- remaining at 0.5 h, 0.1 mg/mL ([2]; human, 30 min, read-out: Relative content of compounds retained in plasma (%)): 101%
- remaining at 1 h, 0.1 mg/mL ([2]; human, 60 min, read-out: Relative content of compounds retained in plasma (%)): 102%
- remaining at 2 h, 0.1 mg/mL ([2]; human, 120 min, read-out: Relative content of compounds retained in plasma (%)): 103%
- remaining at 4 h, 0.1 mg/mL ([2]; human, 240 min, read-out: Relative content of compounds retained in plasma (%)): > 90%
- AUC(0-inf) [3]: 16100 ng·h/mL
- half-life [3]: 13 h
- EC50 (human GIPR): 0.11 nM
- Body weight change (%, mean ± SD) ([4]; Day 1): 0%
- Body weight change (%, mean ± SD) ([4]; Day 4): −11.0 ± 1.0%
- Body weight change (%, mean ± SD) ([4]; Day 7): −17.6 ± 2.6%
- Body weight change (%, mean ± SD) ([4]; Day 10): −22.6 ± 5.9%
- Body weight change (%, mean ± SD) ([4]; Day 13): −22.3 ± 6.3%
- Body weight change (%, mean ± SD) ([4]; Day 16): −22.7 ± 6.9%
- Body weight change (%, mean ± SD) ([4]; Day 19): −25.9 ± 6.2%
- Body weight change (%, mean ± SD) ([4]; Day 22): −23.9 ± 5.6%
- Body weight change (%, mean ± SD) ([4]; Day 25): −23.9 ± 5.6%
- Body weight change (%, mean ± SD) ([4]; Day 28): −25.5 ± 5.3%
- body weight-reducing effect on high-fat food-induced-obesity mice ([4]; doses of 3, 10 and 100 nmol/kg): significant body weight-reducing effect

Molecule: LY3298176 (peptide)
- Activity against human GIPR (EC50 nM); cAMP, HTRF [5]: 0.031 nM

B1: compound 7# H-YAibEGTFTSDYSIYK(OEG-OEG-yGlu-C20-OH)DKIAAQEFVNWLLAGGPSSGAPPPS-NH2 (peptide)
peptide: H-Y[Aib]EGTFTSDYSIYK([AEEA-AEEA-γGlu-C20‑OH])DKIAAQEFVNWLLAGGPSSGAPPPS-NH2
- Activity against human GIPR (EC50 nM); cAMP, HTRF [6]: 0.11 nM
- Activity against human GLP-1R (EC50 nM); cAMP, HTRF [7]: 0.021 nM
